Laboratory results reported in ChEMBL document CHEMBL1275582, “Role of the Ser-287-Asn replacement in the hydrolysis spectrum extension of AmpC beta-lactamases in Escherichia coli” (2009).
In brackets after ≈: the same amount, converted by molar mass.

Key:
Escherichia coli [1] = assay: Activity of Escherichia coli TOP10 beta-lactamase AmpC-B2
Escherichia coli [2] = assay: Activity of Escherichia coli TOP10 beta-lactamase AmpC-B2 S287N mutant
Escherichia coli [3] = assay: Activity of Escherichia coli TOP10 beta-lactamase AmpC-A
Escherichia coli [4] = assay: Activity of Escherichia coli TOP10 beta-lactamase AmpC-A S287N mutant
Escherichia coli [5] = assay: Antibacterial activity against Escherichia coli TOP10 expressing AmpC-A by agar dilution method; type: functional
Escherichia coli [6] = assay: Antibacterial activity against Escherichia coli TOP10 expressing AmpC-A by agar dilution method in presence of 2 mg/liter clavulanic acid; type: functional
Escherichia coli [7] = assay: Antibacterial activity against Escherichia coli TOP10 expressing AmpC-A S287N mutant protein by agar dilution method in presence of 2 mg/liter clavulanic acid; type: functional
Escherichia coli [8] = assay: Antibacterial activity against Escherichia coli TOP10 expressing AmpC-B2 by agar dilution method; type: functional
Escherichia coli [9] = assay: Antibacterial activity against Escherichia coli TOP10 expressing AmpC-B2 by agar dilution method in presence of 2 mg/liter clavulanic acid; type: functional
Escherichia coli [10] = assay: Antibacterial activity against Escherichia coli TOP10 expressing AmpC-B2 S287N mutant protein by agar dilution method in presence of 2 mg/liter clavulanic acid; type: functional
Escherichia coli [11] = assay: Antibacterial activity against Escherichia coli TOP10 by agar dilution method; type: functional
Escherichia coli [12] = assay: Antibacterial activity against Escherichia coli TOP10 by agar dilution method in presence of 2 mg/liter clavulanic acid; type: functional
Escherichia coli [13] = assay: Antibacterial activity against Escherichia coli TOP10 expressing AmpC-A S287N mutant protein by agar dilution method; type: functional
Escherichia coli [14] = assay: Antibacterial activity against Escherichia coli TOP10 expressing AmpC-B2 S287N mutant protein by agar dilution method; type: functional
Escherichia coli [15] = assay: Antibacterial activity against Escherichia coli TOP10 expressing AmpC-A by agar dilution method in presence of 4 mg/liter Tazobactam; type: functional
Escherichia coli [16] = assay: Antibacterial activity against Escherichia coli TOP10 expressing AmpC-A S287N mutant protein by agar dilution method in presence of 4 mg/liter Tazobactam; type: functional
Escherichia coli [17] = assay: Antibacterial activity against Escherichia coli TOP10 expressing AmpC-B2 by agar dilution method in presence of 4 mg/liter Tazobactam; type: functional
Escherichia coli [18] = assay: Antibacterial activity against Escherichia coli TOP10 expressing AmpC-B2 S287N mutant protein by agar dilution method in presence of 4 mg/liter Tazobactam; type: functional
Escherichia coli [19] = assay: Antibacterial activity against Escherichia coli TOP10 by agar dilution method in presence of 4 mg/liter Tazobactam; type: functional

SMILES	kcat (Escherichia coli [1])	kcat (Escherichia coli [2])	kcat (Escherichia coli [3])	kcat (Escherichia coli [4])	MIC (Escherichia coli [5])	MIC (Escherichia coli [8])	MIC (Escherichia coli [11])	MIC (Escherichia coli [13])	MIC (Escherichia coli [14])	Km (Escherichia coli [1])	Km (Escherichia coli [2])	Km (Escherichia coli [3])	Km (Escherichia coli [4])	further results
O=C(Cc1cccs1)N[C@@H]1C(=O)N2C(C(=O)[O-])=C(C[n+]3ccccc3)CS[C@H]12	240 s⁻¹	112 s⁻¹	230 s⁻¹	50 s⁻¹										
CC1(C)S[C@@H]2[C@H](NC(=O)[C@H](N)c3ccc(O)cc3)C(=O)N2[C@H]1C(=O)O [AMOXICILLIN]					> 512 µg/mL	> 512 µg/mL	2 µg/mL (≈ 5.47 µM)							MIC (Escherichia coli [6]): > 512 µg/mL; MIC (Escherichia coli [7]): 512 µg/mL; MIC (Escherichia coli [9]): 256 µg/mL; MIC (Escherichia coli [10]): 512 µg/mL; MIC (Escherichia coli [12]): 2 µg/mL
C[C@H]1[C@H](NC(=O)/C(=N\OC(C)(C)C(=O)O)c2csc(N)n2)C(=O)N1S(=O)(=O)O [AZTREONAM]					0.125 µg/mL (≈ 0.287 µM)	0.06 µg/mL (≈ 0.138 µM)		16 µg/mL (≈ 36.7 µM)						
CO/N=C(\C(=O)N[C@@H]1C(=O)N2C(C(=O)[O-])=C(C[N+]3(C)CCCC3)CS[C@H]12)c1csc(N)n1 [CEFEPIME]		0.25 s⁻¹		1.35 s⁻¹	0.06 µg/mL (≈ 0.125 µM)	0.06 µg/mL (≈ 0.125 µM)		16 µg/mL (≈ 33.3 µM)						
CO/N=C(\C(=O)N[C@@H]1C(=O)N2C(C(=O)O)=C(COC(C)=O)CS[C@H]12)c1csc(N)n1 [CEFOTAXIME]	0.1 s⁻¹	0.045 s⁻¹	0.2 s⁻¹	0.08 s⁻¹	1 µg/mL (≈ 2.2 µM)	0.5 µg/mL (≈ 1.1 µM)	0.06 µg/mL (≈ 0.132 µM)	16 µg/mL (≈ 35.1 µM)	1 µg/mL (≈ 2.2 µM)	45 µM	1000 µM	25 µM	100 µM	
CO[C@@]1(NC(=O)Cc2cccs2)C(=O)N2C(C(=O)O)=C(COC(N)=O)CS[C@@H]21 [CEFOXITIN]	0.4 s⁻¹	0.08 s⁻¹	0.3 s⁻¹	0.1 s⁻¹	128 µg/mL (≈ 299 µM)	128 µg/mL (≈ 299 µM)	2 µg/mL (≈ 4.68 µM)	32 µg/mL (≈ 74.9 µM)	128 µg/mL (≈ 299 µM)	1.5 µM	800 µM	1 µM	700 µM	
CC(C)(O/N=C(\C(=O)N[C@@H]1C(=O)N2C(C(=O)[O-])=C(C[n+]3ccccc3)CS[C@H]12)c1csc(N)n1)C(=O)O [CEFTAZIDIME]	0.3 s⁻¹	0.01 s⁻¹	0.5 s⁻¹	0.2 s⁻¹	2 µg/mL (≈ 3.66 µM)	1 µg/mL (≈ 1.83 µM)	0.06 µg/mL (≈ 0.11 µM)	512 µg/mL (≈ 937 µM)	4 µg/mL (≈ 7.32 µM)		1000 µM	70 µM	400 µM	
CC(=O)OCC1=C(C(=O)O)N2C(=O)[C@@H](NC(=O)Cc3cccs3)[C@H]2SC1 [CEPHALOTHIN]	540 s⁻¹	10 s⁻¹	500 s⁻¹	65 s⁻¹	> 512 µg/mL	> 512 µg/mL	2 µg/mL (≈ 5.04 µM)			85 µM		30 µM	5500 µM	
C[C@@H](O)[C@H]1C(=O)N2C(C(=O)O)=C(SCCNC=N)C[C@H]12 [IMIPENEM ANHYDROUS]	0.09 s⁻¹	0.06 s⁻¹		0.06 s⁻¹	0.06 µg/mL (≈ 0.2 µM)	0.06 µg/mL (≈ 0.2 µM)		0.06 µg/mL (≈ 0.2 µM)	0.06 µg/mL (≈ 0.2 µM)	32 µM	2000 µM		200 µM	
CCN1CCN(C(=O)N[C@@H](C(=O)N[C@@H]2C(=O)N3[C@@H]2SC(C)(C)[C@@H]3C(=O)O)c2ccccc2)C(=O)C1=O [PIPERACILLIN]					4 µg/mL (≈ 7.73 µM)	2 µg/mL (≈ 3.86 µM)	1 µg/mL (≈ 1.93 µM)	8 µg/mL (≈ 15.5 µM)	4 µg/mL (≈ 7.73 µM)					MIC (Escherichia coli [15]): 4 µg/mL; MIC (Escherichia coli [16]): 8 µg/mL; MIC (Escherichia coli [17]): 4 µg/mL; MIC (Escherichia coli [18]): 4 µg/mL; MIC (Escherichia coli [19]): 1 µg/mL
CC1(C)S[C@@H]2[C@H](NC(=O)[C@H](C(=O)O)c3ccsc3)C(=O)N2[C@H]1C(=O)O [TICARCILLIN]					2 µg/mL (≈ 5.2 µM)	2 µg/mL (≈ 5.2 µM)	1 µg/mL (≈ 2.6 µM)	256 µg/mL (≈ 666 µM)	64 µg/mL (≈ 166 µM)					MIC (Escherichia coli [6]): 2 µg/mL; MIC (Escherichia coli [7]): 256 µg/mL; MIC (Escherichia coli [9]): 2 µg/mL; MIC (Escherichia coli [10]): 64 µg/mL; MIC (Escherichia coli [12]): 1 µg/mL
